Values after ≈ are worked out from the molar mass of the structure shown.
Assays:
Human CB1 receptor [1] = molecular target: T1, Human CB1 receptor (Homo sapiens, UniProt P21554); test: hCB1 GTPγS binding; type: biochemical; settings: human CB1 membranes, GTPg35S binding
T1 construct: purchased Receptor Biology
Protocol: Human CB1 receptor from Receptor Biology (hCB1) or human CB2 receptor membranes (BioSignal) are thawed at 37° C., passed 3 times through a 25-gauge blunt-end needle and diluted in the GTPγS binding buffer (50 mM Hepes, 20 mM NaOH, 100 mM […], 1 mM EDTA, 5 mM MgCl2, pH 7.4, 0.1% BSA). The EC50 and Emax of the compounds of the invention are evaluated from 10-point dose-response curves done in […] with the appropriate amount of membrane protein and 100000-130000 dpm of GTPg^35S per well (0.11-0.14 nM). The basal and maximal stimulated binding is determined in absence and presence of 1 μM (hCB2) or 10 μM (hCB1) Win 55,212-2 respectively. The membranes are pre-incubated for 5 minutes with 56.25 μM (hCB2) or 112.5 μM (hCB1) GDP prior to distribution in plates (15 μM (hCB2) or 30 μM (hCB1) GDP final). The plates are vortexed and incubated for 60 minutes at room temperature, filtered on Unifilters GF/B (presoaked in water) with the Tomtec or Packard harvester using 3 ml of wash buffer (50 mM Tris, 5 mM MgCl2, 50 mM NaCl, pH 7.0). The filters are dried for 1 hour at 55° C. The radioactivity (cpm) is counted in a TopCount (Packard) after adding 65 μl/well of MS-20 scintillation liquid. Antagonist reversal studies are done in the same way except that (a) an agonist dose-response curve is done in the presence of a constant concentration of antagonist, or (b) an antagonist dose-response curve is done in the presence of a constant concentration of agonist.

Human CB1 receptor [2] = molecular target: T1, Human CB1 receptor; test: hCB1 receptor binding (3H-CP55,940 displacement)
Protocol: Human CB1 receptor from Receptor Biology (hCB1) or human CB2 receptor from BioSignal (hCB2) membranes are thawed at 37° C., passed 3 times through a 25-gauge blunt-end needle, diluted in the cannabinoid binding buffer (50 mM Tris, 2.5 mM EDTA, 5 mM MgCl2, and 0.5 mg/mL BSA fatty acid free, pH 7.4) and aliquots containing the appropriate amount of protein are distributed into 96-well plates. The IC50 of the compounds of the invention at hCB1 and hCB2 are evaluated from 10-point dose-response curves done with ^3H-CP55,940 at 20000 to 25000 dpm per well (0.17-0.21 nM) in a final volume of 300 μl. The total and non-specific binding are determined in the absence and presence of 0.2 μM of HU210 respectively. The plates are vortexed and incubated for 60 minutes at room temperature, filtered through Unifilters GF/B (presoaked in 0.1% polyethyleneimine) with the Tomtec or Packard harvester using 3 mL of wash buffer (50 mM Tris, 5 mM MgCl2, 0.5 mg BSA pH 7.0). The filters are dried for 1 hour at 55° C. The radioactivity (cpm) is counted in a TopCount (Packard) after adding 65 μl/well of MS-20 scintillation liquid.
Based on the above assays, the dissociation constant (Ki) for a particular compound of the invention towards a particular receptor is determined using the following equation: Ki=IC50/(1+[rad]/Kd),
Wherein IC50 is the concentration of the compound of the invention at which 50% displacement has been observed;
[rad] is a standard or reference radioactive ligand concentration at that moment; and
Kd is the dissociation constant of the radioactive ligand towards the particular receptor.

T1 sequence (P21554 whole entry): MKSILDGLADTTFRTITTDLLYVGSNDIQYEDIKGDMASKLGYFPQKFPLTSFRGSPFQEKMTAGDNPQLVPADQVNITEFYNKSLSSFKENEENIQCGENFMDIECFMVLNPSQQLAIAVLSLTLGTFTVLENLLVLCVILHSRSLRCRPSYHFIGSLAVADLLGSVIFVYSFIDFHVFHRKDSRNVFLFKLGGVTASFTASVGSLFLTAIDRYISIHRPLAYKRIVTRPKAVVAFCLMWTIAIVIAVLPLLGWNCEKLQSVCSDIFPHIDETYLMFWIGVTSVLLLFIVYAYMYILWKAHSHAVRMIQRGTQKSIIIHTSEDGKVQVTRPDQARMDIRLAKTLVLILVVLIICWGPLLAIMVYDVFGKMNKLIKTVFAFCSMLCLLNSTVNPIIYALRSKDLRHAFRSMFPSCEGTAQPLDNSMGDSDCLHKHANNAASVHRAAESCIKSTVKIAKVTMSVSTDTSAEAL

SMILES | EC50 (Human CB1 receptor [1]) [nM] | solubility (Solubility) [µM] | Ki (Human CB1 receptor [2]) [nM]
CC(C)(C)c1nc2cc(S(=O)(=O)n3cc(C(=O)NC4CC4)cn3)ccc2n1CC1CCC(F)(F)CC1 [1-({2-tert-Butyl-1-[(4,4-difluorocyclohexyl)methyl]-1H-benzimidazol-5-yl}sulfonyl)-N-cyclopropyl-1H-pyrazole-4-carboxamide] | 0.58 | 6.16 (≈ 3.2 µg/mL) | 0.88
CC(C)NC(=O)c1cnn(S(=O)(=O)c2ccc3c(c2)nc(C(C)(C)C)n3CC2CCC(F)(F)CC2)c1 [1-({2-tert-Butyl-1-[(4,4-difluorocyclohexyl)methyl]-1H-benzimidazol-5-yl}sulfonyl)-N-isopropyl-1H-pyrazole-4-carboxamide] | 3.41 | 0.26 (≈ 0.136 µg/mL) | 1.82
CNC(=O)c1cnn(S(=O)(=O)c2ccc3c(c2)nc(C(C)(C)C)n3CC2CCC(F)(F)CC2)c1 [1-({2-tert-Butyl-1-[(4,4-difluorocyclohexyl)methyl]-1H-benzimidazol-5-yl}sulfonyl)-N-methyl-1H-pyrazole-4-carboxamide] | 1.21 | 2.52 (≈ 1.24 µg/mL) | 1.61
CCNC(=O)c1ccn(S(=O)(=O)c2ccc3c(c2)nc(C(C)(F)F)n3CC2CCOCC2)c1 [1-{[2-(1,1-Difluoroethyl)-1-(tetrahydro-2H-pyran-4-ylmethyl)-1H-benzimidazol-5-yl]sulfonyl}-N-ethyl-1H-pyrrole-3-carboxamide] | – | 7.45 (≈ 3.58 µg/mL) | 88
CC(C)(C)c1nc2cc(S(=O)(=O)n3ccc(N)n3)ccc2n1CC1CCOCC1 [1-{[2-tert-Butyl-1-(tetrahydro-2H-pyran-4-ylmethyl)-1H-benzimidazol-5-yl]sulfonyl}-1H-pyrazol-3-amine] | – | 43 (≈ 18 µg/mL) | 252
CC(C)(C)c1nc2cc(S(=O)(=O)n3ccc(C(=O)NC4CC4)c3)ccc2n1CC1CCOCC1 [1-{[2-tert-Butyl-1-(tetrahydro-2H-pyran-4-ylmethyl)-1H-benzimidazol-5-yl]sulfonyl}-N-cyclopropyl-1H-pyrrole-3-carboxamide] | 10.5 | 5.64 (≈ 2.73 µg/mL) | 5.68
CCNC(=O)c1cnn(S(=O)(=O)c2ccc3c(c2)nc(C(C)(C)C)n3CC2CCOCC2)c1 [1-{[2-tert-Butyl-1-(tetrahydro-2H-pyran-4-ylmethyl)-1H-benzimidazol-5-yl]sulfonyl}-N-ethyl-1H-pyrazole-4-carboxamide] | 57.2 | 337 (≈ 160 µg/mL) | 14.6
CNC(=O)C1CCN(S(=O)(=O)c2ccc3c(c2)nc(C(C)(C)C)n3CC2CCOCC2)C1 (stereo not drawn) [1-{[2-tert-Butyl-1-(tetrahydro-2H-pyran-4-ylmethyl)-1H-benzimidazol-5-yl]sulfonyl}-N-methylpyrrolidine-3-carboxamide] | – | 2600 (≈ 1200 µg/mL) | 833
CCNC(=O)c1ccn(S(=O)(=O)c2ccc3c(c2)nc(C(C)(C)C)n3CC2CCOCC2)c1 [1-{[2-tert-butyl-1-(tetrahydro-2H-pyran-4-ylmethyl)-1H-benzimidazol-5-yl]sulfonyl}-N-ethyl-1H-pyrrole-3-carboxamide] | 84.2 | 28 (≈ 13.2 µg/mL) | 24.2
CC(C)(C)c1nc2cc(S(=O)(=O)N3CCOCC3)ccc2n1CC1CCOCC1 [2-tert-Butyl-5-(morpholin-4-ylsulfonyl)-1-(tetrahydro-2H-pyran-4-ylmethyl)-1H-benzimidazole] | – | 128 (≈ 54.1 µg/mL) | 1530
CC(C)(C)c1nc2cc(S(=O)(=O)N3CCCC(c4ccccc4)C3)ccc2n1CC1CCOCC1 (stereo not drawn) [2-tert-Butyl-5-[(3-phenylpiperidin-1-yl)sulfonyl]-1-(tetrahydro-2H-pyran-4-ylmethyl)-1H-benzimidazole] | – | 0.79 (≈ 0.392 µg/mL) | 278
CC(C)(C)c1nc2cc(S(=O)(=O)N3CCC(c4ccccc4)C3)ccc2n1CC1CCOCC1 (stereo not drawn) [2-tert-Butyl-5-[(3-phenylpyrrolidin-1-yl)sulfonyl]-1-(tetrahydro-2H-pyran-4-ylmethyl)-1H-benzimidazole] | – | 7.29 (≈ 3.51 µg/mL) | 110
CC(C)(C)c1nc2cc(S(=O)(=O)N3CCOC(C(=O)NC4CC4)C3)ccc2n1CC1CCC(F)(F)CC1 (stereo not drawn) [4-({2-tert-Butyl-1-[(4,4-difluorocyclohexyl)methyl]-1H-benzimidazol-5-yl}sulfonyl)-N-cyclopropylmorpholine-2-carboxamide] | 10.4 | 42.5 (≈ 22.9 µg/mL) | 11.3
CCNC(=O)[C@@H]1CN(S(=O)(=O)c2ccc3c(c2)nc(C(C)(C)C)n3CC2CCC(F)(F)CC2)CCO1 [(2S)-4-({2-tert-butyl-1-[(4,4-difluorocyclohexyl)methyl]-1H-benzimidazol-5-yl}sulfonyl)-N-ethylmorpholine-2-carboxamide] | 43.8 | 43.4 (≈ 22.8 µg/mL) | 18
CC(C)(C)c1nc2cc(S(=O)(=O)N3CCC[C@H](C(=O)NC4CC4)C3)ccc2n1CC1CCC(F)(F)CC1 [(3S)-1-({2-tert-Butyl-1-[(4,4-difluorocyclohexyl)methyl]-1H-benzimidazol-5-yl}sulfonyl)-N-cyclopropylpiperidine-3-carboxamide] | 1.71 | 29.4 (≈ 15.8 µg/mL) | 2.05
CCCNC(=O)[C@H]1CCCN(S(=O)(=O)c2ccc3c(c2)nc(C(C)(C)C)n3CC2CCC(F)(F)CC2)C1 [(3S)-1-({2-tert-Butyl-1-[(4,4-difluorocyclohexyl)methyl]-1H-benzimidazol-5-yl}sulfonyl)-N-propylpiperidine-3-carboxamide] | 1.69 | 16.8 (≈ 9.04 µg/mL) | 2.03
CC(F)(F)c1nc2cc(S(=O)(=O)n3ccc(C(=O)NC4CC4)c3)ccc2n1CC1CCOCC1 [N-Cyclopropyl-1-{[2-(1,1-difluoroethyl)-1-(tetrahydro-2H-pyran-4-ylmethyl)-1H-benzimidazol-5-yl]sulfonyl}-1H-pyrrole-3-carboxamide] | 17.8 | 6.2 (≈ 3.05 µg/mL) | 19.1

— US7615642B2, “Therapeutic compounds” (priority 2006, dated 2009)
